Usually IC50 stands for the concentration that inhibits the measured activity by half.

Two molecules from paper PMC6042793 (PLoS ONE, 2018) can be followed below.

SMILES strings stand for the structures.

Test [1] concerns sialidase activity of A/Shizuoka/30/2014 (H1N1pdm), H275Y. The format is biochemical, influenza A virus (H1N1pdm). To be noted: pH 6.5.
The subject of test [2] is sialidase activity of A/Shizuoka/1573/2009 (H1N1pdm), H275Y. The format is biochemical, influenza A virus (H1N1pdm). To be noted: pH 6.5.
For test [3], the target named is viral sialidase activity of A/Shizuoka/30/2014 (H1N1pdm), H275Y (Influenza A virus, UniProt W8DXJ8, H275Y). The format is biochemical.
Test [4] has as its target viral sialidase activity of A/Shizuoka/19/2016 (H1N1pdm) (Influenza A virus, UniProt A0A0X9QTS2). The class given is biochemical. To be noted: read-out: IC50 values in the sialidase inhibition assay.
The target of test [5] is viral sialidase activity of A/Shizuoka/17/2016 (H1N1pdm) (Influenza A virus, UniProt A0A0X9QTS2). The class given is biochemical. To be noted: read-out: IC50 values in the sialidase inhibition assay.
The target in test [6] is viral sialidase activity of A/Shizuoka/1573/2009 (H1N1pdm), H275Y (Influenza A virus, UniProt C3W5S3, H275Y). The class given is biochemical. To be noted: read-out: IC50 values in the sialidase inhibition assay.

Consider `CCOC(=O)C1=C[C@@H](OC(CC)CC)[C@H](NC(C)=O)[C@@H](N)C1` [OV, oseltamivir], for which the “BTP3 fluorescence on the membrane in the presence of NAI” value in test [1] and in test [2] was “strong fluorescence” each time.
In the case of `CCC(CC)[C@H](NC(C)=O)[C@@H]1[C@H](O)[C@@H](C(=O)O)C[C@H]1N=C(N)N` [PV, peramivir], the “IC50 for A/Shizuoka/30/2014 relative to that for A/Shizuoka/1573/2009” value in test [3] was 1.9 fold. Further, the 50% inhibitory concentration (IC50) amounted to 79 nM in test [3] (read-out: IC50 values in the sialidase inhibition assay), 0.05 nM in test [4], 0.05 nM in test [5] and 41 nM in test [6]. Further, the “BTP3 fluorescence on the membrane in the presence of NAI” value in test [1] and in test [2] was “strong fluorescence” each time.
